Measurements from US7504393B2, “Benzylamine analogues” (priority 2001, dated 2009).
Where a name gives a salt, the structure may show the parent alone. Read-outs that look alike come from different tables or passages of the source.

How the values were obtained:
serotonin re-uptake = biological target: T1, serotonin re-uptake (Rattus norvegicus, UniProt P31652); assay: Serotonin re-uptake inhibitory activity (synaptosome, [3H]5-HT); assay type: biochemical
T1 construct: synaptosome prepared from rat whole brains except the cerebellums; from tissue; host or cells: synaptosomes from rat whole brain except the cerebellum
T1 sequence (P31652 whole entry): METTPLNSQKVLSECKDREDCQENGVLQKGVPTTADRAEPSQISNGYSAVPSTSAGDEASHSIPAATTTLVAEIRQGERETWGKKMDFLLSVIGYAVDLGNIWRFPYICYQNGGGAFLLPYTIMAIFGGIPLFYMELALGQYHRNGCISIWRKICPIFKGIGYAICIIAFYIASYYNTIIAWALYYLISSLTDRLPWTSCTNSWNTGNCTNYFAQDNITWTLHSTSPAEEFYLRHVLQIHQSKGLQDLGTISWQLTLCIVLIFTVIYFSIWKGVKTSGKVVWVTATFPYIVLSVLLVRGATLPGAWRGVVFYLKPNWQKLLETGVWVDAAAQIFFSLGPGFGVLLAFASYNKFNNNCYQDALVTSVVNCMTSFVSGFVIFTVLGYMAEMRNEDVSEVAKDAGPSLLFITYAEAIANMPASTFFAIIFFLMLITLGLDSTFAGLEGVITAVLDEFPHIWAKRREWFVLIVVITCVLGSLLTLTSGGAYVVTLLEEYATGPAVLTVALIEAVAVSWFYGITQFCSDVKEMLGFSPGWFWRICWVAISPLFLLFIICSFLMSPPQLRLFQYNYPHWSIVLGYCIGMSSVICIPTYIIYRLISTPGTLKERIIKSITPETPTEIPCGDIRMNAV
Description: Serotonin re-uptake inhibitory activity was determined using synaptosome prepared from rat whole brains except the cerebellums. Briefly, 10 μl of DMSO solution-dissolved test substance (control group; DMSO solution alone) was added to 1 ml of synaptosome and incubated for 5 min at 37° C. (in the control, DMSO alone was added to the synaptosome and incubated at 4° C.). Furthermore, 10 μl of [^3H]5-HT solution (final concentration: 10 μM as a total concentration of 5-HT, 100 nM as [^3H]5-HT) was added and incubated for 5 min at 37° C. Then 4 ml of ice-cold saline was added to stop the response. The response solution was filtered, 4 ml of saline was added, and the solution was once again filtered. Furthermore, 5 ml of Pico-Fluor was added, then ^3H levels on filter papers were counted by a liquid scintillation counter. Concentrations of test compounds to inhibit serotonin re-uptake by 50% (IC50) were calculated.

acetylcholinesterase = biological target: T2, acetylcholinesterase (Mus musculus, UniProt P21836); assay: biochemical
T2 construct: phosphate buffer solution containing the brain homogenate; from tissue; host or cells: mouse whole brain homogenate
T2 sequence (P21836 32-614): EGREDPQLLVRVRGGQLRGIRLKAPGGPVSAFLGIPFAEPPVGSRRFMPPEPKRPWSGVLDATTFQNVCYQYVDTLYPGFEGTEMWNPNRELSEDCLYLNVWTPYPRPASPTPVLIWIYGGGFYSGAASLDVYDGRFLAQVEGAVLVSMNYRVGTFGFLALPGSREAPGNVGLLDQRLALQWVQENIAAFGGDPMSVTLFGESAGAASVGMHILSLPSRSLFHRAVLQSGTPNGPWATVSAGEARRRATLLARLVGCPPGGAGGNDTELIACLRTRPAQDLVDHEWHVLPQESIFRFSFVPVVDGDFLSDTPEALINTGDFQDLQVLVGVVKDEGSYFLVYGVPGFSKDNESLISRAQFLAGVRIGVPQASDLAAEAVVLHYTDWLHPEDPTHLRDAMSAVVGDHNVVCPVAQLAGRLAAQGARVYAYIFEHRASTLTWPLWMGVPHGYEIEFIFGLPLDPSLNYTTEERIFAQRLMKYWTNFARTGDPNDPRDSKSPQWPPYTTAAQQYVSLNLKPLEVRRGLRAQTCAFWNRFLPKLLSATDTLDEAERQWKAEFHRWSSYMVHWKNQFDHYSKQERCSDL

[1] = synaptosome from rat whole brain except cerebellum, [3H]5-HT, 37° C., read-out: IC50 (nM) Serotonin re-uptake inhibitory activity
[2] = mouse whole brain homogenate, acetylthiocholine/DTNB, absorbance 412 nm, read-out: IC50 (nM) Acetylcholinesterase inhibitory activity

Molecule | IC50 (serotonin re-uptake; [1]) [nM] | IC50 (acetylcholinesterase) [nM] | IC50 (acetylcholinesterase; [2]) [nM] | IC50 (serotonin re-uptake) [nM]
2-Methyl-1-[2-(4-methylthiophenoxy)-ethyl]-2,3-dihydro-1H-benzo[c]azepin-7-yl dimethylcarbamate hydrochloride [Test Compound 196] | 18 |  |  | 
2-Methyl-(1R)-[2-(4-methylthiophenoxy)-ethyl]-2,3-dihydro-1H-benzo[c]azepin-7-yl dimethylcarbamate hydrochloride [Test Compound 197] | 6 |  |  | 
4-[3-(4-Chlorophenoxy)-1-dimethylaminopropyl]-2-methylphenyl dimethylcarbamate hydrochloride [Test Compound 185] | 170 |  |  | 
4-[3-(4-Methylthiophenoxy)-1-dimethylaminopropyl]-2-methylphenyl dimethylcarbamate hydrochloride [Test Compound 186] | 62 |  |  | 
4-[3-(4-Methylthiophenoxy)-1-dimethylaminopropyl]phenyl dimethylcarbamate hydrochloride [Test Compound 175] | 380 |  |  | 
4-[3-(4-Methylthiophenoxy)-1-methylaminopropyl]phenyl dimethylcarbamate hydrochloride [Test Compound 174] | 85 |  |  | 
4-[3-(4-Nitrophenoxy)-1-dimethylaminopropyl]-2-methylphenyl dimethylcarbamate hydrochloride [Test Compound 182] | 44 |  |  | 
CNC(CCOc1ccc(Cl)cc1)c1ccc(OC(=O)N(C)C)cc1 (centres unmarked) [Test Compound 16, 4-[3-(4-Chlorophenoxy)-1-methylaminopropyl]phenyl dimethylcarbamate hydrochloride] | 493 | 210 |  | 
CNC(CCOc1ccc(F)cc1)c1ccc(OC(=O)N(C)C)cc1 (centres unmarked) [Test Compound 30, 4-[3-(4-Fluorophenoxy)-1-methylaminopropyl]phenyl dimethylcarbamate hydrochloride] | 594 | 790 |  | 
CN(C)C(=O)Oc1ccc(C(CCOc2ccc(F)cc2)N(C)C)cc1 (centres unmarked) [Test Compound 31, hydrochloride] | 323 |  | 440 | 
CNC(CCOc1cccc(Cl)c1)c1ccc(OC(=O)N(C)C)cc1 (centres unmarked) [Test Compound 38, 4-[3-(3-chlorophenoxy)-1-methylaminopropyl]phenyl dimethylcarbamate hydrochloride] | 199 | 175 |  | 
CN(C)C(=O)Oc1ccc(C(CCOc2ccc(Cl)cc2)N(C)C)cc1 (centres unmarked) [Test Compound 41, 4-[3-(4-Chlorophenoxy)-1-dimethylaminopropyl]phenyl dimethylcarbamate hydrochloride] | 507 | 79 |  | 
CNC(CCOc1ccc(F)c(F)c1)c1ccc(OC(=O)N(C)C)cc1 (centres unmarked) [Test Compound 54, 4-[3-(3,4-Difluorophenoxy)-1-methylaminopropyl]phenyl dimethylcarbamate hydrochloride] | 166 | 670 |  | 
CNC(CCOc1ccc(Cl)c(F)c1)c1ccc(OC(=O)N(C)C)cc1 (centres unmarked) [Test Compound 55, 4-[3-(4-Chloro-3-fluorophenoxy)-1-methylaminopropyl]phenyl dimethylcarbamate hydrochloride] | 60 | 280 |  | 
CN[C@H](CCOc1cccc(Cl)c1)c1ccc(OC(=O)N(C)C)cc1 [Test Compound 61, (R)-4-[3-(3-Chlorophenoxy)-1-methylaminopropyl]phenyl dimethylcarbamate hydrochloride] | 182 | 230 |  | 
CN[C@H](CCOc1ccc(Cl)cc1)c1ccc(OC(=O)N(C)C)cc1 [Test Compound 62, (R)-4-[3-(4-Chlorophenoxy)-1-methylaminopropyl]phenyl dimethylcarbamate hydrochloride] | 343 | 270 |  | 
CNC(CCOc1cccc(F)c1)c1ccc(OC(=O)N(C)C)cc1 (centres unmarked) [Test Compound 68, 4-[3-(3-Fluorophenoxy)-1-methylaminopropyl]phenyl dimethylcarbamate hydrochloride] | 145 | 580 |  | 

Molecule | IC50 (serotonin re-uptake; [1]) [nM] | IC50 (acetylcholinesterase) [nM] | IC50 (acetylcholinesterase; [2]) [nM] | IC50 (serotonin re-uptake) [nM]
CN(C)C(=O)Oc1ccc(C(CCOc2cccc(F)c2)N(C)C)cc1 (centres unmarked) [Test Compound 70, 4-[1-Dimethylamino-3-(3-fluorophenoxy)propyl]phenyl dimethylcarbamate hydrochloride] | 86 | 90 |  | 
CN(C)C(=O)Oc1ccc(C(CCOc2ccc(F)c(F)c2)N(C)C)cc1 (centres unmarked) [Test Compound 76, 4-[3-(3,4-Difluorophenoxy)-1-dimethylaminopropyl]phenyl dimethylcarbamate hydrochloride] | 124 | 300 |  | 
CN[C@@H](CCOc1cccc(Cl)c1)c1ccc(OC(=O)N(C)C)cc1 [Test Compound 81, (S)-4-[3-(3-Chlorophenoxy)-1-methylaminopropyl]phenyl dimethylcarbamate hydrochloride] | 228 | 320 |  | 
CN[C@@H](CCOc1ccc(Cl)cc1)c1ccc(OC(=O)N(C)C)cc1 [Test Compound 82, (S)-4-[3-(4-Chlorophenoxy)-1-methylaminopropyl]phenyl dimethylcarbamate hydrochloride] | 377 | 83 |  | 
CN(C)C(=O)Oc1ccc(C(CCOc2ccc([N+](=O)[O-])cc2)N(C)C)cc1 (centres unmarked) [Test Compound 89, 4-[1-Dimethylamino-3-(4-nitrophenoxy)propyl]phenyl dimethylcarbamate hydrochloride] | 319 | 87 |  | 
CNC(CCOc1ccc([N+](=O)[O-])cc1)c1cccc(OC(=O)N(C)C)c1 (centres unmarked) [Test Compound 95, 3-[1-Methylamino-3-(4-nitrophenoxy)propyl]phenyl dimethylcarbamate hydrochloride] | 221 | 52 |  | 
CN(C)C(=O)Oc1ccc([C@@H](CCOc2ccc([N+](=O)[O-])cc2)N(C)C)cc1 [Test Compound 102, (R)-4-[1-Dimethylamino-3-(4-nitrophenoxy)propyl]phenyl dimethylcarbamate hydrochloride] | 167 | 170 |  | 
CN(C)C(=O)Oc1cccc(C(CCOc2ccc([N+](=O)[O-])cc2)N(C)C)c1 (centres unmarked) [Test Compound 104, 3-[1-Dimethylamino-3-(4-nitrophenoxy)propyl]phenyl dimethylcarbamate hydrochloride] | 176 | 53 |  | 
CNC(CCOc1ccc([N+](=O)[O-])cc1Cl)c1ccc(OC(=O)N(C)C)cc1 (centres unmarked) [Test Compound 124, 4-[3-(2-Chloro-4-nitrophenoxy)-1-methylaminopropyl]phenyl dimethylcarbamate hydrochloride] | 110 | 64 |  | 
CN[C@@H](CCOc1ccc([N+](=O)[O-])cc1)c1cccc(OC(=O)N(C)C)c1 [Test Compound 125, (S) -3-[3-(4-Nitrophenoxy)-1-methylaminopropyl]phenyl dimathylcarbamate hydrochloride] | 841 |  | 19 | 
CN(C)C(=O)Oc1ccc2c(c1)C=CCN(C)C2CCOc1ccc([N+](=O)[O-])cc1 (centres unmarked) [Test Compound 192, 2-Methyl-1-[2-(4-nitrophenoxy)-ethyl]-2,3-dihydro-1H-benzo[c]azepin-7-yl dimethylcarbamate hydrochloride] | 63 |  |  | 
CN(C)C(=O)Oc1ccc2c(c1)C=CCN(C)[C@@H]2CCOc1ccc([N+](=O)[O-])cc1 [Test Compound 199, 2-Methyl-[[(1S)]] (1R)-[2-(4-nitrophenoxy)-ethyl]-2,3-dihydro-1H-benzo[c]azepin-7-yl dimethylcarbamate hydrochloride] | 6 |  |  | 
CN(C)C(=O)Oc1ccc2c(c1)C=CCN(C)[C@H]2CCOc1ccc([N+](=O)[O-])cc1 [Test Compound 200, 2-Methyl-(1S)-[2-(4-nitrophenoxy)-ethyl]-2,3-dihydro-1H-benzo[c]azepin-7-yl dimethylcarbamate hydrochloride] | 930 |  |  | 
Cc1cc(OCCC2c3cccc(OC(=O)N(C)C)c3C=CCN2C)ccc1Cl (centres unmarked) [Test Compound 202, 2-Methyl-[2-(4-chloro-3-methylphenoxy)-ethyl]-2,3-dihydro-1H-benzo[c]azepin-6-yl dimethylcarbamate hydrochloride] |  |  |  | 900
(R)-4-[3-(4-Methylthiophenoxy)-1-methylaminopropyl]phenyl dimethylcarbamate hydrochloride [Test Compound 177] | 120 |  |  | 
(S)-4-[3-(4-Methylthiophenoxy)-1-methylaminopropyl]phenyl dimethylcarbamate hydrochloride [Test Compound 176] | 56 |  |  | 
